Data from ChEMBL document CHEMBL1201862, “PubChem BioAssay data set” (2004).
Active and inactive are the calls of the source. Cut-off read from the data, not from the text of the source, for most assays here: actives have a measured EC50 and inactives only a lower limit.

Experiments:
[1] = fluconazole-exposed Candida albicans growth modulators – fluorescence, retest, confirmation (AID 2467); assay type: functional, cell-based
Streptococcus = assay: GAS UMAA2166 growth inhibition – luminescence, BacTiterGlo, counter-screen for streptokinase expression inhibitor project, dose response (AID 1915); assay type: functional, organism-based;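 note: potency for reduction of bacterial viability or growth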
Streptokinase A = biological target: T1, Streptokinase A (Streptococcus pyogenes serotype M1, UniProt P10520); assay: viability-normalized secreted streptokinase activity reduction – plasminogen activation absorbance, OD405, dose response (AID 1914); assay type: functional, Streptococcus pyogenes M1 GAS;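 note: secreted streptokinase activity via plasminogen activation per viability signal from cell pellet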
T1 sequence (P10520 whole entry): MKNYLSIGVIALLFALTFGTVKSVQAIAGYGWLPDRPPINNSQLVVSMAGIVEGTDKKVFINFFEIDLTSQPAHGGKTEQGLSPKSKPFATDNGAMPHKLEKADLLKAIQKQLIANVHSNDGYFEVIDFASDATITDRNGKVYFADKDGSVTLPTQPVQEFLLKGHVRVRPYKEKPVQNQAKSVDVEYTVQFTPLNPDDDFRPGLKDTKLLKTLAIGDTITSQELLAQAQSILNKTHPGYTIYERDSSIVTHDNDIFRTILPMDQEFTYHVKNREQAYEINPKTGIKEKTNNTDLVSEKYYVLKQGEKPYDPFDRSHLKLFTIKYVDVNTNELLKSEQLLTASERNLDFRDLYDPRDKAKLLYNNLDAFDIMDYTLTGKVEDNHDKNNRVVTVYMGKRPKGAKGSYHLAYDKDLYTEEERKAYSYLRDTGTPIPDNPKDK

[2] = system: Streptococcus sp. 'group A'; assay: Streptococcus pyogenes SK(-)GAS viability under kanamycin – luminescence, BacTiterGlo, confirmation, counter-screen for streptokinase expression inhibitor project, dose response (AID 1900); assay type: functional, organism-based
[3] = NIH-3T3 fibroblast cytotoxicity, dose response, cytotoxicity control, cell-based, fluorescence, Alamar Blue, secondary assay (AID 2327); assay type: functional;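 note: NIH-3T3 mouse fibroblasts cultured with fluconazole at 8 µg/mL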
Genome polyprotein = Genome polyprotein (dengue virus type 2, UniProt P29990); assay: flavivirus cap methylation enzyme inhibition – biochemical, confirmation dose response, primary screen (AID 588689); assay type: functional
[4] = P. falciparum Dd2 growth inhibitors, dose response, SYBR Green, cherry-picked samples (AID 1159567); assay type: functional, cell-based
[5] = biological target: Heat shock protein HSP 90-alpha (Homo sapiens, UniProt P07900); assay type: functional, organism-based
[6] = biological target: T2, RNA-binding protein pos-1 (Caenorhabditis elegans, UniProt G5EF15); assay: disruptors of C. elegans POS-1 RNA interaction – biochemical, fluorescence polarization, dose response (AID 1964);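 note: purified POS-1 fused to maltose binding protein made in E. coli; potency of compounds blocking POS-1 binding to fluorescent RNA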
T2 sequence (G5EF15 whole entry): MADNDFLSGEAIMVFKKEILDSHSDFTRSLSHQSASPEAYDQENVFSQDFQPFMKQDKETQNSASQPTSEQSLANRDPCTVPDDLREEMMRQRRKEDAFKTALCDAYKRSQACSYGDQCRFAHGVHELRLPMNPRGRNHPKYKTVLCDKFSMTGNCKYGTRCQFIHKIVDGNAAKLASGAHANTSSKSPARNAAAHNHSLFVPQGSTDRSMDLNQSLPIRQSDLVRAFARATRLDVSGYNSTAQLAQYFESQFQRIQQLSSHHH

[7] = biological target: T3, Zinc finger protein mex-5 (Caenorhabditis elegans, UniProt Q9XUB2); assay: potency of MEX-5 RNA-binding blockers – biochemical, C. elegans, fluorescence polarization, dose response (AID 1960)
T3 sequence (Q9XUB2 whole entry): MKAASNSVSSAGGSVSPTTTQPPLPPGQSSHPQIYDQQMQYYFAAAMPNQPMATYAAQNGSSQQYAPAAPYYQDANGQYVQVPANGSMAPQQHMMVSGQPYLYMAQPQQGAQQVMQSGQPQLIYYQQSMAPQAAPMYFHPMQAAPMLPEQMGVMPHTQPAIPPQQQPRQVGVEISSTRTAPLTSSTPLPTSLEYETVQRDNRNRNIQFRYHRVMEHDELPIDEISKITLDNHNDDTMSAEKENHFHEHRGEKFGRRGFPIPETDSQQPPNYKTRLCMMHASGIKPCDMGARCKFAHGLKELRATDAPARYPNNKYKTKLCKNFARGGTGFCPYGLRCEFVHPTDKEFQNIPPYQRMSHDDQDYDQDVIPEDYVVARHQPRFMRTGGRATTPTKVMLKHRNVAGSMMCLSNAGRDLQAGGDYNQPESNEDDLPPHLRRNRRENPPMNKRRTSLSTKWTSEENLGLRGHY

[8] = Trypanosoma cruzi growth suppression in host cells – NIH3T3 host cells, beta-gal luminescence, confirmation (AID 2044); assay type: functional, cell-based;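 note: intracellular parasites grown in NIH/3T3 mouse fibroblasts as host cells; luminescent beta-galactosidase reporter signal from transgenic T. cruzi replicating inside host cells; inhibitors lower the luminescence signal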
Protein RecA = biological target: T4, Protein RecA (Mycobacterium tuberculosis, UniProt P9WHJ3); assay: Fluorescence Cell-Free Homogeneous Dose Retest to Identify Inhibitors of RecA-Intein Splicing Activity. [Related pubchem assays (depositor defined):AID2097, AID2223, AID489010, AID492950]; assay type: functional
T4 sequence (P9WHJ3 whole entry): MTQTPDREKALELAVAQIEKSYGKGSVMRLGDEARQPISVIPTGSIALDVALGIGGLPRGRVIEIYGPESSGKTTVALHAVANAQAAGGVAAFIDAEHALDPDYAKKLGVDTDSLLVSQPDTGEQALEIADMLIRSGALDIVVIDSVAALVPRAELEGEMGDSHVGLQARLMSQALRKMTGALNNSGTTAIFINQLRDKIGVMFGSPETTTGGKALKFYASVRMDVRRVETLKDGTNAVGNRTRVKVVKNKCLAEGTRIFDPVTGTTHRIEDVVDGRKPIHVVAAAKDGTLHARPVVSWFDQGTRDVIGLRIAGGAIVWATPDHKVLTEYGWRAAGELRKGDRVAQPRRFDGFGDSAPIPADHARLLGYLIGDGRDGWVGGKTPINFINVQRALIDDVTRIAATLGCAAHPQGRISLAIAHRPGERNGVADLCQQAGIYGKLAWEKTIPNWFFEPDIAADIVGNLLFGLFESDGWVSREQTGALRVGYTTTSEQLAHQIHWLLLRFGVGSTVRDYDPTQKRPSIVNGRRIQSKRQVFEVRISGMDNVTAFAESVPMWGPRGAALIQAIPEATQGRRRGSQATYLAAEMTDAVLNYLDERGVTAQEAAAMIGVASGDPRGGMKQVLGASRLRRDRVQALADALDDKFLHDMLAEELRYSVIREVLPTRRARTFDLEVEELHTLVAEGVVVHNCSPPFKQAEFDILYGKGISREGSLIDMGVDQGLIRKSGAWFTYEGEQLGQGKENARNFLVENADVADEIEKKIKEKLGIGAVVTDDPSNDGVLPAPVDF

[9] = NIH3T3 cell viability loss – ATP luminescence, mouse fibroblasts, counter-screen, dose response (AID 2010); assay type: functional, cell-based;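 note: cells exposed to compound for about 90 hours before reading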
[10] = biological target: T5, Replicative DNA helicase DnaB (Mycobacterium tuberculosis, UniProt P9WMR3); assay: DnaB intein splicing inhibitors, dose response, biochemical, cell-free fluorescence (AID 449749); assay type: functional
T5 sequence (P9WMR3 whole entry): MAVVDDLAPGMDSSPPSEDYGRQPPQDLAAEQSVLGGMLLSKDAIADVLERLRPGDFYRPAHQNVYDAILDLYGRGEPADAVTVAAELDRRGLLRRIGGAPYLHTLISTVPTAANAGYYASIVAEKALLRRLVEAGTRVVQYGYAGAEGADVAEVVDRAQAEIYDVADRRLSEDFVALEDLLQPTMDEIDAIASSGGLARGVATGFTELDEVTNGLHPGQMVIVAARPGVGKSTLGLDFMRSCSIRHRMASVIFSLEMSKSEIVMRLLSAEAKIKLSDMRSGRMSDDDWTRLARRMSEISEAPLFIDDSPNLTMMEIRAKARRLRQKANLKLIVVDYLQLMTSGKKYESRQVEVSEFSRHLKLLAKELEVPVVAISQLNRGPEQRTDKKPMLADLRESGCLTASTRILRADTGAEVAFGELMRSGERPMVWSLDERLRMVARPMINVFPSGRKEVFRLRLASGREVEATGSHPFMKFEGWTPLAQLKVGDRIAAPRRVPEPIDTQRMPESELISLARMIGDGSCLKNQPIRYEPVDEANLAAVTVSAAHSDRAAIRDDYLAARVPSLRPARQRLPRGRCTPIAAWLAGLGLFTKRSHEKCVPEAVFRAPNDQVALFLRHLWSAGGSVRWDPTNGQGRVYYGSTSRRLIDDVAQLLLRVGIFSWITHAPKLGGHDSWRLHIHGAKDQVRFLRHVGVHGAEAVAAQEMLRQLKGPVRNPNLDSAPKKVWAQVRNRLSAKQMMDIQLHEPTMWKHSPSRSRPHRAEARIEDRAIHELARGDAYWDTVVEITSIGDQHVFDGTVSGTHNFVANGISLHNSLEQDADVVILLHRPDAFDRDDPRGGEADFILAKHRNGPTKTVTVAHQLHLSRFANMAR

Large T antigen = Large T antigen (Simian virus 40, UniProt P03070); assay type: functional, Betapolyomavirus macacae;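 note: Confirmatory-stage PubChem screen for compounds that inhibit SV40 T antigen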
[11] = biological target: T6, Heat shock factor protein 1 (Mus musculus, UniProt P38532); assay: enhancement of HSF1-driven luciferase signal – cell-based, NIH3T3, luminescence, dose retest, confirmation (AID 435004); assay type: functional;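 note: stress induced by proteasome inhibitor MG132 added 30 min after compound; luciferase reporter driven by HSF1 response element in NIH3T3 cells; actives raise luminescence as potentiators of the MG132 stress response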
T6 sequence (P38532 whole entry): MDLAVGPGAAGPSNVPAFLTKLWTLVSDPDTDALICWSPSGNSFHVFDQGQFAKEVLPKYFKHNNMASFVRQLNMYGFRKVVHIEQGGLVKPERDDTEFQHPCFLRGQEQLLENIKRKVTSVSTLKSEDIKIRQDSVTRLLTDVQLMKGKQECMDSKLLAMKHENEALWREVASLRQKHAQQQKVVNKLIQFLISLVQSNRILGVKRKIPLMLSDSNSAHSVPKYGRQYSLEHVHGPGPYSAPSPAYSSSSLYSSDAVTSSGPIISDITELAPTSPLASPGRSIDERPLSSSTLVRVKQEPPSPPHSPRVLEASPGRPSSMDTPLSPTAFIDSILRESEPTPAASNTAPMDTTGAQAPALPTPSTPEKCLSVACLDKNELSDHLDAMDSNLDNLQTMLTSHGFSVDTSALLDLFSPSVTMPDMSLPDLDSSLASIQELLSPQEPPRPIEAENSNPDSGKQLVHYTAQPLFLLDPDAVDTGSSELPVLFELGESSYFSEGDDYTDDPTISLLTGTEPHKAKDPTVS

Nonstructural protein 1 = Nonstructural protein 1 (Influenza A virus, UniProt Q194T2); assay type: functional, Influenza A virus (A/California/07/2009(H1N1))
Nonstructural protein 1, sequence (Q194T2 whole entry): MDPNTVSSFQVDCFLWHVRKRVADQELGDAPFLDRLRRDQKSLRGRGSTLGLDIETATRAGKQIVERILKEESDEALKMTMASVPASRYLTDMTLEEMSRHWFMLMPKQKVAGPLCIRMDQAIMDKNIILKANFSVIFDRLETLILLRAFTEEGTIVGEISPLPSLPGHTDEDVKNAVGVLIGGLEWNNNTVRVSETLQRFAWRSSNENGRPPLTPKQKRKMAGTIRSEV

Genome polyprotein, sequence (P29990 2492-3391 limits assumed): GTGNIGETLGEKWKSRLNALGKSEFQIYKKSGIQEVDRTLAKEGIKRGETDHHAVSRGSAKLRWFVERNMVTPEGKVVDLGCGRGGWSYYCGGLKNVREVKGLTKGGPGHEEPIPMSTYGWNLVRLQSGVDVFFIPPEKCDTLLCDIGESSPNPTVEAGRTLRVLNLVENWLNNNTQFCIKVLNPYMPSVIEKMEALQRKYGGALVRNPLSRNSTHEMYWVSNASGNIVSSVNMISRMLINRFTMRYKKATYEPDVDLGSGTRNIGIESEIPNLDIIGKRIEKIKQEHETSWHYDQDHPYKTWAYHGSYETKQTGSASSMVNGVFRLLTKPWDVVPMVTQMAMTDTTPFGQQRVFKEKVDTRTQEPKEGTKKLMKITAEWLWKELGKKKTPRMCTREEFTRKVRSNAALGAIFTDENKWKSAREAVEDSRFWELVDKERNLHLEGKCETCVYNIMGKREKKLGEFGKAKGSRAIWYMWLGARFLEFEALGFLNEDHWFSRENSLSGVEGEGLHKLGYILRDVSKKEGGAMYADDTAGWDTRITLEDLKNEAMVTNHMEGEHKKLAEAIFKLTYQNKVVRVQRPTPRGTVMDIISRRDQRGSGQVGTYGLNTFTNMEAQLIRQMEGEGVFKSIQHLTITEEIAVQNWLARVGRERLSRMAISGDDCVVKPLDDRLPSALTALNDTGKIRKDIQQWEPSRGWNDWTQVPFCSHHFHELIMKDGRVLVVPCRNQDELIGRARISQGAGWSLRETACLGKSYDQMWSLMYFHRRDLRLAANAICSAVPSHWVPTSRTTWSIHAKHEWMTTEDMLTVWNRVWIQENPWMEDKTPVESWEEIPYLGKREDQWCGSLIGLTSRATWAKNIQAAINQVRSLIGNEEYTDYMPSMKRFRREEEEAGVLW
Large T antigen, sequence (P03070 whole entry): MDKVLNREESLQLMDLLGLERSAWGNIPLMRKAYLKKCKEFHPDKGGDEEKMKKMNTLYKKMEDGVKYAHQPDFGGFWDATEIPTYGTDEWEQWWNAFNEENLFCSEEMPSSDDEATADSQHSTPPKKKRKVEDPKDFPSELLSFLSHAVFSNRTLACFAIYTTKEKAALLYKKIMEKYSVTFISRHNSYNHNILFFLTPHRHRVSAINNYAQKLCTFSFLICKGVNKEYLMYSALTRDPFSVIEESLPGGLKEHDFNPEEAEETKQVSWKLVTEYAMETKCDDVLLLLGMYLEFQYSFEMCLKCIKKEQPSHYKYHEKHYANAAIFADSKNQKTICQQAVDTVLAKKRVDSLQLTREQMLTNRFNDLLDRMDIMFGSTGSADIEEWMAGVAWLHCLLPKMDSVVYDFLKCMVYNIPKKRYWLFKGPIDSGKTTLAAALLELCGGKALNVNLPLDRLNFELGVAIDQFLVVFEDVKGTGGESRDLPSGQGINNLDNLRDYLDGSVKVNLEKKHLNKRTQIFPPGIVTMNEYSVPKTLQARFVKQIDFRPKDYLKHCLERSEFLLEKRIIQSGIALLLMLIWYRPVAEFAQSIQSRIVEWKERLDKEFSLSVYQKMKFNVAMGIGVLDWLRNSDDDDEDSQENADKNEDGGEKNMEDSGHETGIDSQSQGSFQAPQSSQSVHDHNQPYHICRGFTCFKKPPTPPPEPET

O=C(NNC(=S)NC(=O)c1ccccc1)c1ccc([N+](=O)[O-])cc1
EC50 [1]: 1.46 µM (active) | EC50 (Streptococcus): 15.5 µM (active) | EC50 (Streptokinase A): > 150 µM (not active) | EC50 [2]: 4.22 µM (active) | EC50 [3]: > 160 µM (inactive)

O=C(O)/C=C/C(=O)c1ccc2c(c1)NC(=O)CO2
IC50 (Genome polyprotein): > 100 µM (active)

CCCN1C[C@@H](C)[C@H](OC)CN(C)C(=O)c2ccc(NC(=O)c3cccc(F)c3)cc2OC[C@H]1C
AC50 [4]: 5.34 µM (active)

COc1ccc2c(c1)OC[C@H]1[C@H]2N2C(=O)c3cc(Br)ccc3NC(=O)[C@@]2(C)[C@H]1c1ccccc1
AC50 [5]: 0.837 µM (active)

CC(=O)c1ccc(NC(=O)Nc2cccc3ccccc23)cc1
EC50 [1]: > 38 µM (not active) | EC50 [3]: 19.1 µM (inconclusive)

Cc1ccc(N2CCN(C3=NC(=O)/C(=C\c4c[nH]nc4-c4ccccc4)S3)CC2)cc1
EC50 [1]: 8.34 µM (active) | EC50 [3]: > 150 µM (inactive)

CC1(OC(=O)c2ccco2)C(=O)C=C2C=C(C3CC3)OC=C2C1=O (stereo not drawn)
EC50 [6]: 20.2 µM (active) | IC50 (Genome polyprotein): > 100 µM (active) | EC50 [7]: 18.3 µM (active)

C=C[S+]([O-])c1sc(Cl)c(N2CCOCC2)c1[N+](=O)[O-] (stereo not drawn)
EC50 [8]: 2.99 µM (active) | EC50 (Protein RecA): 18.8 µM (active) | EC50 [9]: 3.08 µM (active) | AC50 [10]: 22.2 µM (active) | IC50 (Large T antigen): 9.77 µM (active) | EC50 [11]: 3.36 µM (inconclusive)

CC(=NNC(=S)N1CC2CCC(CC2)C1)c1cnccn1
AC50 [5]: 4.43 µM (active) | IC50 (Nonstructural protein 1): 3.16 µM (active)
